Publication PMC7489219 (Molecular Brain, 2020)
Where a name gives a salt, the structure may show the parent alone.

The compounds below were run on T1, primary mouse cortical neurons (assay: cells). Details: Cortical neurone, 20 h, read-out: % inhibition, inhibition of NMDA-induced cell death (protection score), 30 min pre-treatment.
T1 construct: primary cortical neurons, DIV 10
Set-up: Protection from NMDA-induced (30 uM, 10 min) neuronal death; Hoechst nuclear morphology by automated microscopy
Protocol: On DIV 10, compounds were applied to the cells reaching an end concentration of 10 μM. Cells were incubated for 30 min at 37 °C, 5% CO2 before adding NMDA (30 μM). Cells were incubated for another 10 min in the incubator, then washed twice with defined minimal medium containing 10 μM of the respective compound and incubated for an additional 20 h before readout. Untreated (no NMDA) and NMDA-only stimulated wells were treated with 0.1% DMSO. […] After 15 min of incubation at room temperature, cells were washed twice with phosphate buffered saline. […] Dead neurons were identified by amorphous or shrunken nuclei using CellProfiler and CellProfiler Analyst software. For all cell death analyses the experimental unit (N) is defined as an independent experiment using an independent neuronal preparation. For each independent experiment, data from 3 replicate wells (i.e., from 36 images), representing an average of 3000 cells was analyzed per condition. The survival rate S was calculated by dividing the number of living cells by the total number of cells. The survival rate was then used to calculate the protection score according to Scompound−Svehicle/Suntreated−Svehicle×100=%protection , where ‘compound’ refers to compound + NMDA treatment, ‘vehicle’ refers to vehicle + NMDA treatment, and ‘untreated’ refers to DMSO control. […] As a proof of principle, we next used our assay to screen two commercially available drug libraries. In these screens, primary cortical cells were incubated with test compounds at 10 μM concentration for 30 min before addition of 30 μM NMDA. After 10 min NMDA treatment, cells were washed with fresh medium and kept in the presence of test compounds for 20 h until assessment of cell viability. […] This library covers structurally diverse drugs from several fields such as oncology, cardiology, immunology, and neurology/psychiatry.
`CN1CCN(C2=Nc3cc(Cl)ccc3Nc3ccccc32)CC1` [Clozapine (Clozaril)] showed an inhibition at 10 µM of -5.01%.
`COC1=C(OC)C(=O)C(C/C=C(\C)CC/C=C(\C)CC/C=C(\C)CC/C=C(\C)CC/C=C(\C)CC/C=C(\C)CC/C=C(\C)CC/C=C(\C)CC/C=C(\C)CCC=C(C)C)=C(C)C1=O` [Coenzyme Q10(CoQ10)] gave an inhibition at 10 µM of 9.82%.
`CC(=O)OCC(=O)[C@@]1(O)CC[C@H]2[C@@H]3CCC4=CC(=O)CC[C@]4(C)[C@H]3C(=O)C[C@@]21C` [Cortisone acetate (Cortone)] gave an inhibition at 10 µM of -0.736%.
Compound `C[C@H]1COC2=C1C(=O)C(=O)c1c2ccc2c1CCCC2(C)C` [Cryptotanshinone] has an inhibition at 10 µM of -2.15%.
With `CN(C)c1ccc(C(=C2C=CC(=[N+](C)C)C=C2)c2ccc(N(C)C)cc2)cc1` [Crystal violet] the inhibition at 10 µM was -3.37%.
In the case of `C=C1C[C@@]2(O)O[C@@]3(C[C@H]2C(C)C)[C@@H](C)CC[C@@H]13` [Curcumol], the inhibition at 10 µM is reported as 7.41%.
For `N=c1ccn2c(n1)O[C@H]1[C@H](O)[C@@H](CO)O[C@H]12` [Cyclocytidine HCl], the inhibition at 10 µM was -2.19%.
`CN[C@@H](C)[C@H]1[C@H](O)C[C@@]2(C)[C@@H]3CC[C@H]4C(C)(C)[C@@H](NC)CC[C@@]45C[C@@]35CC[C@]12C` [Cyclovirobuxin D (Bebuxine)] was tested, and the inhibition at 10 µM was 17.2%.
With `Nc1ccn([C@@H]2O[C@H](CO)[C@@H](O)[C@@H]2O)c(=O)n1` [Cytarabine] the inhibition at 10 µM was 38.3%.
Work on `O=c1cccc2n1C[C@@H]1CNC[C@H]2C1` [Cytisine (Baphitoxine, Sophorine)] yielded an inhibition at 10 µM of -0.723%.
For `OC[C@@H](O)[C@@H](O)[C@H](O)[C@H](O)CO` [D-Mannitol (Osmitrol)], the inhibition at 10 µM was 5.76%.
`CN(C)/N=N/c1nc[nH]c1C(N)=O` [Dacarbazine (DTIC-Dome)] was tested, and the inhibition at 10 µM was -1.39%.
In the case of `O=c1c(-c2ccc(O)cc2)coc2cc(O)ccc12` [Daidzein], the inhibition at 10 µM is reported as -2.08%.
`CN(C)[C@@H](CCOc1cccc2ccccc12)c1ccccc1` [Dapoxetine hydrochloride (Priligy)] showed an inhibition at 10 µM of -1.89%.
`CCCCCCCCCC(=O)N[C@@H](Cc1c[nH]c2ccccc12)C(=O)N[C@H](CC(N)=O)C(=O)N[C@@H](CC(=O)O)C(=O)N[C@@H]1C(=O)NCC(=O)N[C@@H](CCCN)C(=O)N[C@@H](CC(=O)O)C(=O)N[C@H](C)C(=O)N[C@@H](CC(=O)O)C(=O)NCC(=O)N[C@H](CO)C(=O)N[C@@H]([C@H](C)CC(=O)O)C(=O)N[C@@H](CC(=O)c2ccccc2N)C(=O)O[C@@H]1C` [Daptomycin] gave an inhibition at 10 µM of -3.03%.
Compound `Cc1nc(Nc2ncc(C(=O)Nc3c(C)cccc3Cl)s2)cc(N2CCN(CCO)CC2)n1` [Dasatinib (BMS-354825)] has an inhibition at 10 µM of -9.79%.
`Nc1ncn([C@H]2C[C@H](O)[C@@H](CO)O2)c(=O)n1` [Decitabine] showed an inhibition at 10 µM of 11.3%.
Work on `CC(=O)OCC(=O)[C@@]12N=C(C)O[C@@H]1C[C@H]1[C@@H]3CCC4=CC(=O)C=C[C@]4(C)[C@H]3[C@@H](O)C[C@@]12C` [Deflazacort (Calcort)] yielded an inhibition at 10 µM of -1.74%.
In the case of `CC1(C)O[C@@H]2C[C@H]3[C@@H]4CCC5=CC(=O)C=C[C@]5(C)[C@H]4[C@@H](O)C[C@]3(C)[C@]2(C(=O)CO)O1` [Desonide], the inhibition at 10 µM is reported as 9.64%.
`C[C@@H]1C[C@H]2[C@@H]3CCC4=CC(=O)C=C[C@]4(C)[C@@]3(F)[C@@H](O)C[C@]2(C)[C@@]1(O)C(=O)CO` [Dexamethasone] showed an inhibition at 10 µM of -9.25%.
`C[C@@H](CN1CC(=O)NC(=O)C1)N1CC(=O)NC(=O)C1` [Dexrazoxane Hydrochloride] was tested, and the inhibition at 10 µM was -16.2%.
`OC[C@H]1OC(O)[C@H](O)[C@@H](O)[C@@H]1O` (stereo partly drawn) [Dextrose (D-glucose)] gave an inhibition at 10 µM of -6.8%.
`O=C(O)Cc1ccccc1Nc1c(Cl)cccc1Cl` [Diclofenac] was tested, and the inhibition at 10 µM was -4.34%.
Compound `O=c1[nH]cnc2c1ncn2[C@H]1CC[C@@H](CO)O1` [Didanosine (Videx)] has an inhibition at 10 µM of 11.6%.
Compound `C[C@@H]1CC[C@H]2[C@@H](C)C(O)O[C@@H]3O[C@@]4(C)CC[C@@H]1[C@]32OO4` (some centres unmarked) [Dihydroartemisinin (DHA)] has an inhibition at 10 µM of -4.3%.
Compound `O=C1c2c(O)cc(O)cc2O[C@H](c2cc(O)c(O)c(O)c2)[C@H]1O` [Dihydromyricetin (Ampeloptin)] has an inhibition at 10 µM of 21.4%.
